Reference: US20240002343A1, “COMPOUNDS HAVING INHIBITORY EFFECT ON MITOCHONDRIAL HYPERFISSION” (KYUSHU UNIVERSITY, NATIONAL UNIVERSITY CORPORATION, priority 2020, published 2024)

What was measured:
[1] = system: Neonatal rat myocardial cells (NRCM); test: Cytoprotective effect against cytotoxicity induced by MeHg and hypotonic stimulation (LDH release assay); assay type: cell-based; conditions: 1 μM pretreatment 1 hour; 50 nM MeHg, 50% hypotonic solution, 2 days; compared with cilnidipine
Method: Neonatal rat myocardial cells (NRCM) were seeded at 2.0×10^5 cells/ml in Matrigel-coated 96-well plates. The NRCMs were pretreated by incubating for 1 hour at 37° C., 5% CO2 with 1 μM of each compound 16c and cilnidipine as a positive control, 1 hour before hypotonic stimulation. To provide hypotonic stimulation, the NRCMs were incubated in isotonic solutions (100% DMEM) or 50% hypotonic solutions (50% DMEM and 50% water) in the presence or absence of 50 nM MeHg that a non-neurotoxic concentration, at 37° C. and 5% CO2 for 2 days. Two days later, cytotoxicity was measured by an LDH release assay using a cytotoxic LDH assay kit (Dojindo).

[2] = system: cardiomyocytes derived from neonatal rats; test: Inhibitory effect on mitochondrial hyperfission by hypoxic stimulation; assay type: cell-based, rat; conditions: 0.3 μM, 1 hour preincubation, 18 hours hypoxic environment; compared with cilnidipine positive control
Method: A system for evaluating quantitatively the degree of mitochondrial division in cells was constructed. Specifically, cardiomyocytes derived from neonatal rats were cultured under either normoxia (20%) or hypoxia (1%) for 16 hours. Subsequently, the cells were stained with a fluorescent dye (MitoTracker Green FM, Thermo Fisher Scientific) that selectively stains mitochondria. Then, the mitochondria were observed under a fluorescence microscope, and the mitochondrial morphology was quantitatively measured by image analysis.
FIGS. 2(a) and (b) are each a micrograph and an image explaining a method for quantitatively measuring mitochondrial morphology by image analysis. FIG. 2(a) is a representative fluorescence micrograph showing the general morphology of mitochondria. FIG. 2(b) is an image obtained by filtering the photograph in FIG. 2(a) and extracting the shape of the mitochondria. Image analysis was performed based on the image in FIG. 2(b) to quantify the lengths of mitochondrial fragments. For the quantification, in order to classify the mitochondria into vesicle-shaped, intermediate-shaped and tube-shaped, <3.5 μm is set for vesicle-shaped, 3.6 μm<length<4.2 μm is set for intermediate-shaped, and >4.2 μm is set for tube-shaped, respectively, as thresholds.
The system for evaluation constructed in Test Example 1 was used to evaluate the mitochondrial hyperfission inhibitory effects of the compounds prepared in Examples.
Specifically, at first, each compound was added to the culture medium of cardiomyocytes derived from neonatal rats at a final concentration of 0.3 μM, and the mixture was incubated for 1 hour.
Then, each cells were cultured for an additional 18 hours in a hypoxic environment. Subsequently, mitochondria were stained with MitoTracker Green FM (Thermo Fisher Scientific) or anti-pyruvate dehydrogenase antibody (Abcam) and observed under a fluorescence microscope to quantitatively measure the morphology of mitochondria. For comparison, a group involving cilnidipine as a positive control and a group involving dimethyl sulfoxide (DMSO) as a negative control were also prepared.

calcium channel = test: Calcium antagonism (KCl-induced calcium ion influx, Fura 2-AM); assay type: cell-based, mouse; conditions: Neuro-2a cells; 0, 1, 10, 100 and 1,000 nM, 30 minutes; potassium chloride 60 mM
Method: The compounds prepared in Examples were evaluated for calcium channel blocking activity. Specifically, at first, Neuro-2a cells, mouse-derived neuroblastoma cell line, were cultured in a serum-free medium, and Fura 2-AM (Dojindo Laboratories) that is a calcium ion probe, was added to the medium so that it was taken up by the cells.
Subsequently, after replacing the medium with HEPES buffer (pH 7.4), each compound was each added at final concentrations of 0, 1, 10, 100 and 1,000 nM and the mixtures were incubated for 30 minutes.
Then, depolarization stimulation was applied with potassium chloride (final concentration 60 mM), and the influx of calcium ions into the cells was measured by fluorescence microscopy.
FIGS. 4(a) and (b) are graphs that illustrate the results of measurement of increase in intracellular calcium ion concentration induced by potassium chloride stimulation. Δratio on the vertical axis is expressed by formula (F1) below and represents a value that reflects the intracellular calcium ion concentration.
A ratio=(fluorescence intensity at fluorescence wavelength of 510 nm against an excitation wavelength of 340 nm)/(fluorescence intensity at fluorescence wavelength of 510 nm against an excitation wavelength of 380 nm) Formula (F1)

COCCOC(=O)C1=C(C)NC(C)=C(C(=O)Nc2cccc(C(=O)OC(C)(C)C)c2)C1c1ccccc1 (stereo not drawn) [Compound 16c, 2-Methoxyethyl 5-((3-(tert-butoxycarbonyl)phenyl)carbamoyl)-2,6-dimethyl-4-phenyl-1,4-dihydropyridine-3-carboxylate]
cytoprotective effect against MeHg and hypotonic stimulation (LDH release) [1]: cytoprotective effects against MeHg and hypotonic stimulation similar to those of cilnidipine | mitochondrial hyperfission inhibitory effect (percentage of cells with vesicle-shaped mitochondria) [2]: the same as or more effect of cilnidipine | Ca2+ antagonism (increase in intracellular calcium ion concentration induced by potassium chloride stimulation) (calcium channel): no Ca2+ antagonism
